Data: patent US10174000B2, “Bicyclic-fused heteroaryl or aryl compounds as IRAK4 modulators” (PFIZER INC., priority 2015, dated 2019)
pIC50: −log10 of the molar value.

Legend:
[1] = biological target: inactive, unphosphorylated (0-phos), human IRAK4 FL (Full Length) (Homo sapiens (Human), UniProt Q9NWZ3); test: IRAK4 Enzymatic DELFIA Assay, Protocol B; format: biochemical; conditions: 600 μM ATP (KM), full-length recombinant human IRAK4
Protocol: IRAK4 Enzymatic DELFIA Assay, Protocol B.
The test compound is solubilized in DMSO to a stock concentration of 30 mM. The dose response plates were prepared with a 4 mM primary compound concentration, serialized in DMSO and spotted (1 μL) into 384-well polypropylene plates as before.
20 uL of 20 mM HEPES pH=7.5, 5 mM MgCl2, 0.0025% Brij-35, 600 μM ATP, and 100 nM ERM-biotinylated peptide (AGAGRDKYKTLRQIR) was added to start the reaction, which was run for 90 minutes at RT and stopped by the addition of 20 μL 0.3M EDTA.
(§1) 50 μL of the reaction mixture was transferred to a streptavidin-coated detection plate (DELFIA streptavidin coated plates, 384-well, white plates, Perkin-Elmer Life Sciences) and incubated for 30 minutes at RT. The plates were washed 4× with 75 μL per well of PBS containing 0.05% Tween-20. Plates were then incubated with 50 μL per well of antibody cocktail of Anti-pERM antibody at 0.125 μg/mL (Cell Signaling Technology), plus Anti-Rabbit IgG EuN1 at 0.25 μg/ml (Perkin-Elmer Life Sciences) in a solution of 10 mM MOPS pH=7.5, 150 mM NaCl, 0.05% Tween-20, 0.02% NaN3, 1% BSA, 0.1% Gelatin for 45 minutes. The plates were then washed as before. 50 μL per well of DELFIA Enhancement Solution (Perkin-Elmer Life Sciences) was added to the plate and incubated for 15 minutes at RT prior to being read on an Envision Model 2104 multi-label reader using a 340 nm excitation wavelength and a […] emission wavelength for detection.

[2] = biological target: human IRAK4 FL (Full Length), phosphorylated (Homo sapiens (Human), UniProt Q9NWZ3); test: IRAK4 Enzymatic DELFIA Assay, Protocol A; format: biochemical; conditions: 600 μM ATP (KM); full-length phosphorylated recombinant human IRAK4
Protocol: IRAK4 Enzymatic DELFIA Assay, Protocol A.
This is an in vitro assay to measure IRAK4 enzymatic activity utilizing the DELFIA (Dissociation-Enhanced Lanthanide Fluorescent Immunoassay, Perkin-Elmer) platform, with the human IRAK4 FL (Full Length) construct to characterize IRAK4 inhibitor and control compounds at 600 μM ATP (KM). The final amount of enzyme in the assay is 0.1 nM IRAK4 FL, final concentration of substrate is 50 nM, and final concentration of DMSO is 2.5%.
The test compound was solubilized in DMSO to a stock concentration of 30 mM. The dose response plates were prepared with a 4 mM primary compound concentration (40-fold multiple of the final in-assay concentration), and diluted in DMSO in a four-fold series for a total of 11 data points. 1 μL of the compound dilution plate is spotted into ultra-clear polypropylene, 384-well, U-bottom plates (Corning Life Sciences).
To begin the assay, 19 μL of reaction mixture containing 20 mM HEPES pH=7.5, 5 mM MgCl2, 0.0025% Brij-35, 600 μM ATP, 0.21 nM Full-length phosphorylated recombinant human IRAK4 (GenBank ID AF445802) are aliquoted into the polypropylene, 384-well, U-bottom plates containing 1 μL of test compound, mixed briefly and incubated for 20 minutes at room temperature (RT). Then, 20 μL of 20 mM HEPES pH=7.5, 5 mM MgCl2, 0.0025% Brij-35, 600 μM ATP, and 100 nM ERM-biotinylated peptide (AGAGRDKYKTLRQIR) is added to start the reaction. The reaction is incubated for 60 minutes at RT and stopped by the addition of 20 μL 0.3M EDTA.
as §1

Sequence of inactive, unphosphorylated (0-phos), human IRAK4 FL (Full Length) (Q9NWZ3 whole entry): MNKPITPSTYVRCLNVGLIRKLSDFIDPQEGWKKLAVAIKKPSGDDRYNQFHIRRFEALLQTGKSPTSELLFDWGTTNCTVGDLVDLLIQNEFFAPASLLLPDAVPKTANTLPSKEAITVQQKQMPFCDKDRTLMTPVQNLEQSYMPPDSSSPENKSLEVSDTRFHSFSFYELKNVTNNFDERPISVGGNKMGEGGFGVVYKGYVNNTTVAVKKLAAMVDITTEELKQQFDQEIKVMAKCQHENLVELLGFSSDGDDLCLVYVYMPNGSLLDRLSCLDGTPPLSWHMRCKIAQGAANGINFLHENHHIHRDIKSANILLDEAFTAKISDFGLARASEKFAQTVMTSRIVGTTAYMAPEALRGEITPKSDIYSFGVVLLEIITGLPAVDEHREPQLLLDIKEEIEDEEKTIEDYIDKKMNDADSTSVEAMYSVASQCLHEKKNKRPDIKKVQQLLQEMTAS
Sequence of human IRAK4 FL (Full Length), phosphorylated (Q9NWZ3 whole entry): as above

Structure (SMILES)	pIC50 [1]	pIC50 [2]
COc1cc2c(OC[C@H]3NC(=O)[C@@H](F)C34CC4)nccc2cc1C(N)=O [Example 24, 1-(((4S,7S)-7-fluoro-6-oxo-5-azaspiro[2.4]heptan-4-yl)methoxy)-7-methoxyisoquinoline-6-carboxamide]	9.10	8.28
CC(C)Oc1cc2c(OC[C@@H]3CCC(=O)N3)ncc(-c3nc(CO)c[nH]3)c2cc1C(N)=O [Example 8, 4-[4-(Hydroxymethyl)-1H-imidazol-2-yl]-1-{[(2S)-5-oxopyrrolidin-2-yl]methoxy}-7-(propan-2-yloxy)isoquinoline-6-carboxamide]	6.72	5.68
Cc1cnc(-c2cnc(OC[C@@H]3CCC(=O)N3)c3cc(OC(C)C)c(C(N)=O)cc23)o1 [Example 9, 4-(5-Methyl-1,3-oxazol-2-yl)-1-{[(2S)-5-oxopyrrolidin-2-yl]methoxy}-7-(propan-2-yloxy)isoquinoline-6-carboxamide]	8.37	7.05
COc1cc2c(OC[C@@H]3NC(=O)[C@@H](F)C34CC4)nccc2cc1C(N)=O [Example 22, 1-(((4R,7S)-7-fluoro-6-oxo-5-azaspiro[2.4]heptan-4-yl)methoxy)-7-methoxyisoquinoline-6-carboxamide]	5.77	4.59
CC[C@@H]1[C@H](F)C(=O)N[C@@H]1COc1nccc2nc(C(N)=O)c(OC)cc12 [Example 32, 5-{[(2S,3S,4S)-3-ethyl-4-fluoro-5-oxopyrrolidin-2-yl]methoxy}-3-methoxy-1,6-naphthyridine-2-carboxamide]	8.35	7.57

Compounds with a higher pIC50 [1], results first:

pIC50 [1]	pIC50 [2]	Structure (SMILES)
9.52	8.11	CC[C@@H]1[C@H](F)C(=O)N[C@@H]1COc1cncc2cc(C(N)=O)c(OC)cc12 [Example 26, 4-(((2S,3S,4S)-3-ethyl-4-fluoro-5-oxopyrrolidin-2-yl)methoxy)-6-methoxyisoquinoline-7-carboxamide]
9.30	8.66	CC[C@@H]1[C@H](F)C(=O)N[C@@H]1COc1ncc(N)c2cc(C(N)=O)c(OC)cc12 [Example 15, 4-Amino-1-{[(2S,3S,4S)-3-ethyl-4-fluoro-5-oxopyrrolidin-2-yl]methoxy}-7-methoxyisoquinoline-6-carboxamide]
9.22	8.27	CC(C)Oc1cc2c(OC[C@H]3NC(=O)[C@@H](F)C34CC4)nccc2cc1C(N)=O [Example 19, 1-(((4S,7S)-7-fluoro-6-oxo-5-azaspiro[2.4]heptan-4-yl)methoxy)-7-isopropoxyisoquinoline-6-carboxamide]
